The record followed here is PubChem BioAssay AID743162 (Broad Institute, 2013).

For this experiment, the system named is Mycobacterium tuberculosis replicating, CFU count, imaging. As to the kind of experiment: growth inhibition of replicating M. tuberculosis, dose response, CFU by imaging, dry powder, 7108-01 (AID 743162). Conditions: stronger effect = lower value.

Calls of active or inactive are those of the source. How the calls were made is not given here.

As for `CSc1nsc(SCc2ccc(C(=O)Nc3cccc(C)c3)cc2)n1`, the CFU count (CFU at 10 uM, at 10 µM) was -1.9e+09 and the CFU count (at 64 µM) is 1.31e+06.

As to `c1ccc(-c2n[nH]c(-c3ccccn3)n2)nc1`, the CFU count runs as follows: (CFU at 10 uM, at 10 µM) 1.06e+09; (at 64 µM) 1.3e+09 (inactive).

Regarding `CCOC(=O)c1cc(COc2c(Cl)cccc2Cl)on1`, the CFU count (CFU at 10 uM, at 10 µM) was determined as 1.85e+09 and the CFU count (at 64 µM) was 1.7e+09 (inactive).

Regarding `Cn1c(NC(=O)c2ccccc2)nc2ccccc21`, the CFU count (CFU at 10 uM, at 10 µM) was 1.98e+09 and the CFU count (at 64 µM) is 0.

Take `COc1ccc(CNC(=O)Nc2ncc([N+](=O)[O-])s2)cc1`: the CFU count is, setting by setting: (CFU at 10 uM, at 10 µM) 1.24e+09; (at 64 µM) 220000.

For `COc1ccc(CCNc2cc(-c3ccccc3)nc3ncnn23)cc1`, the CFU count reads like this: (CFU at 10 uM, at 10 µM) 1.18e+09; (at 64 µM) 4.3e+08 (inactive).

With `COC(=O)C(C)Oc1ccc2cc(-c3ccccc3)c(=O)oc2c1` (stereo not drawn), the CFU count runs as follows: (CFU at 10 uM, at 10 µM) 2.01e+09; (at 64 µM) 1e+09 (inactive).

Take `CCC(C)n1nnc2c(=O)oc3ccccc3c21` (stereo not drawn): the CFU count was 8.38e+08 (CFU at 10 uM, at 10 µM) and 6.7e+08 (inactive) (at 64 µM).

Regarding `CCOc1ccc(OC(=O)c2ccc3c(=O)n4c(nc3c2)CCC4)cc1`, the CFU count by setting is: (CFU at 10 uM, at 10 µM) 1.36e+09; (at 64 µM) 1e+09 (inactive).
